The text below walks through data of patent US20060199867A1, “Ambroxol for the treatment of chronic pain” (Boehringer Ingelheim Pharma GmbH, priority 2002, published 2006).

For assay [1], the system named is neuropathic pain (tactile allodynia, thermal hyperalgesia). Kind of assay: test models for neuropathic pain in the rat. The note with it: neuropathic pain models in the rat (Bennett and Xie; Seltzer et al.). Format: in vivo. An excerpt:
(1) Bennett G J and Xie Y-K. A peripheral mononeuropathy in rat that produces disorders of pain sensation like those seen in man. Pain 33, 87-107, […]. (2) Seltzer, Z., Dubner R. and Shir, Y. A novel behavioral model of neuropathic pain disorder. Pain 43, 205-218, 1990.

For assay [2], the system named is Tetrodotoxin-sensitive currents. The assay is classed as cell-based, rat. The note with it: read-out: IC50 tetrodotoxin-sensitive currents; neurone cultures from the posterior root ganglions of adult rats.
The test system of assay [3] is formalin-induced nociceptive behaviors (flinches, licking). Kind of assay: Formalin Paw Test. The assay is classed as in vivo. The following applies: Rattus norvegicus, po, male rats, dose at which control values are inhibited by 50%. The protocol: Formalin Paw Test (Ref: Carlton S M and Zhou S: Attenuation of formalin-induced nociceptive behaviors following local peripheral injection of gabapeptin. Pain 76, 201-207, 1998). Male rats (Chbb: THOM) weighing 250-300 grams are used. 20 μl of a 2% formaldehyde solution is injected into the plantar region of the right hind paw. Immediately after, the number of flinches (twitches of the affected hind paw) and the length of time spent licking the affected paw are recorded over a period of one hour. After 5 minutes in each case the values are grouped together into epochs. From the epoch values, time-effect curves for flinches and licking are plotted. Typically, two phases of formalin effect are observed (flinches, licking). A first phase lasting 0-10 minutes and a second phase lasting 10-60 minutes. Between the two phases the number of flinches and duration of licking fall towards 0 (interphase). From the time-effect curves the areas under the curve for the first phase and for the second phase are determined. Usually, 5 animals are used for each control, placebo and dose of substance. The results of the doses of substance are compared with those of the controls and ED50 values are calculated. The ED50 is the dose at which the control values are inhibited by 50%.

Molecules are shown by their SMILES. Where a name gives a salt, the structure may show the parent alone.

In the case of `Nc1c(Br)cc(Br)cc1CN[C@H]1CC[C@H](O)CC1` [ambroxol, trans-4-(2-amino-3,5-dibrombenzylamino)-cyclohexanol], in assay [1], the tactile allodynia entry is given as “reduced the tactile allodynia” and the thermal hyperalgesia result is recorded as “reduced”. Moreover, the IC50 in assay [2] is over 100 µM.
In turn, `Nc1c(Br)cc(Br)cc1CN[C@H]1CC[C@H](O)CC1` [ambroxol hydrochloride] had an ED50 in assay [3] of 70 mg/kg.

Usually IC50 stands for the concentration that inhibits the measured activity by half. In general, ED50 refers to the midpoint of the dose-response relation. Read a low ED50 as an effect at a small dose.
